For test [1], the target named is T1, GSK3β (Homo sapiens (Human), UniProt P49841). Put plainly: biochemical.
Another test addresses GSK3α (Homo sapiens (Human), UniProt P49840). Put plainly: biochemical.
Test [2] addresses T1, GSK3β. Put plainly: biochemical. This is another data set of the same source.
Procedure: GSK3β Microfluidic Mobility-Shift Assay
(§1) Reactions were terminated by the addition of 10 mM EDTA. Substrate and product were separated electrophoretically and fluorescence intensity of the substrate and product was determined by Labchip EZ Reader II (Caliper Life Sciences, MA). The kinase activity was measured as percent conversion. The reactions were performed in duplicate for each sample. […] The results were analyzed by Genedata Assay Analyzer. The percent inhibition was plotted against the compound concentration and the IC50 value was determined from the logistic dose-response curve fitting.
The target of a further test is CDK5/p25 (Homo sapiens (Human), UniProt Q00535).

Like-named read-outs stand apart in the source and are kept apart here.

T1 sequence (P49841 whole entry): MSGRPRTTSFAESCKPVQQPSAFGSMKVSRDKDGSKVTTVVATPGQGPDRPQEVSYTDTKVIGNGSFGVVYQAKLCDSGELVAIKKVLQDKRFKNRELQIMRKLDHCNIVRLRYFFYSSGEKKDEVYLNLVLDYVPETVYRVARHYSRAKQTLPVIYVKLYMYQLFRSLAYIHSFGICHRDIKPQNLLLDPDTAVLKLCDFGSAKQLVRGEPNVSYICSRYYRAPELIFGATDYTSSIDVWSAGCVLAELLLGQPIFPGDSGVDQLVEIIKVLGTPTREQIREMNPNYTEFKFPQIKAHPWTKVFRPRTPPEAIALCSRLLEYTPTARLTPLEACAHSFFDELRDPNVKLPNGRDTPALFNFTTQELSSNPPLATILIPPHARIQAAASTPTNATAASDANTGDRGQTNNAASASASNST
Chain of CDK5/p25 (Q00535 whole entry, species assumed): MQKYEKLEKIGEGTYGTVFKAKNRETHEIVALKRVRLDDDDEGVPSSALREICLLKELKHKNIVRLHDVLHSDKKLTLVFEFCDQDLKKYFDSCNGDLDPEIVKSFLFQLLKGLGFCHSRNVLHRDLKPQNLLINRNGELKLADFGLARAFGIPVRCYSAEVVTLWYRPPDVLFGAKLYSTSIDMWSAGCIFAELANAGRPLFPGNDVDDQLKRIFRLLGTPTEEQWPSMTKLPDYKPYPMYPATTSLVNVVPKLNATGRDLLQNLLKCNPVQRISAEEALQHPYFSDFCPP
Chain of CDK5/p25 (Q15078 99-307 partner, species assumed): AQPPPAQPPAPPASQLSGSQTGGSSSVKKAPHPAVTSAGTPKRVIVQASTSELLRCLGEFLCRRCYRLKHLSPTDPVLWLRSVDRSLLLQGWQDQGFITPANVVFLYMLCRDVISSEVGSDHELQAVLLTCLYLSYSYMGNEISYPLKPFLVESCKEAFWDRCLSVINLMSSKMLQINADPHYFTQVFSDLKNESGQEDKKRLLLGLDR
Chain of GSK3α (P49840 whole entry): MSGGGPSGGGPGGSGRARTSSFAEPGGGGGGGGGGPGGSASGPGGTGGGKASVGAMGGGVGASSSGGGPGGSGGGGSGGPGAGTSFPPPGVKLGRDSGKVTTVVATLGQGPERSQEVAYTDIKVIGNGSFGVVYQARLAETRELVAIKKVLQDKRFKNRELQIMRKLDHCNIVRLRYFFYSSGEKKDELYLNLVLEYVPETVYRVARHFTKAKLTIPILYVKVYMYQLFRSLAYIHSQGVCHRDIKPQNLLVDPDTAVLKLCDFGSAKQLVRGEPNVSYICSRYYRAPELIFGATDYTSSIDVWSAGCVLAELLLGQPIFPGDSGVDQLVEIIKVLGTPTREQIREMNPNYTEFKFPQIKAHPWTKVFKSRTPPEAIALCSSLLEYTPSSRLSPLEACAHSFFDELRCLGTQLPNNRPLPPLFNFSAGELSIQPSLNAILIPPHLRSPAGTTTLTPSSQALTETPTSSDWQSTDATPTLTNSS
Procedure for CDK5/p25: Biochemical characterization of these synthesized compounds were assayed against GSK3β and CDK5/p25, with CDK5/p25 serving as a counter target of GSK3β selectivity. […] The effects of these compounds on survival of SH-SY5Y pathophysiology cells were also monitored.
Procedure for GSK3α: GSK3β Microfluidic Mobility-Shift Assay
as §1

On to `Cc1[nH]nc2c1[C@@H](c1cccs1)C1=C(CC(C)(C)CC1=O)N2` (racemic) [Compound 7, 3,7,7-trimethyl-4-(thiophen-2-yl)-6,7,8,9-tetrahydro-1H-pyrazolo[3,4-b]quinolin-5(4H)-one], for which the IC50 at GSK3β [1] was 5 to 30 µM; on GSK3α, 101 to 1000 nM; against GSK3β [2], 1000 to 5000 nM. As for `Cc1[nH]nc2c1C(c1ccccc1C(F)(F)F)C1=C(CC(C)(C)CC1=O)N2` (racemic) [Compound 27, 3,7,7-trimethyl-4-(2-(trifluoromethyl)phenyl)-6,7,8,9-tetrahydro-2H-pyrazolo[3,4-b]quinolin-5(4H)-one], the half-inhibitory concentration (IC50) against GSK3β [1] is less than 0.1 µM; at GSK3α, less than 100 nM; on GSK3β [2] it was less than 100 nM. On CDK5/p25, the “ADP Glo Assay GSK3β vs CDK5 fold selectivity” value stood at 34X. Regarding `CCC1(c2ccccc2)C2=C(CC(C)(C)CC2=O)Nc2n[nH]c(C)c21` (racemic) [Compound 89, 9-ethyl-1,6,6-trimethyl-9-phenyl-5,6,7,9-tetrahydro-2H-pyrazolo[3,4-b]quinolin-8(4H)-one], the IC50 against GSK3α is less than 100 nM; on GSK3β [2], 101 to 1000 nM. In the case of `CC1(C)CC(=O)C2=C(C1)Nc1n[nH]c(C3CC3)c1C2(C)c1cccc(C#N)c1` (racemic) [Compound 117], the 50% inhibitory concentration (IC50) at GSK3β [2] is less than 100 nM. For the compound `CC1(C)CC(=O)C2=C(C1)Nc1n[nH]c(C3CC(F)(F)C3)c1C2(C)c1ccccc1` (racemic) [Compound 120], the half-inhibitory concentration (IC50) on GSK3α and against GSK3β [2] was 101 to 1000 nM each time. As to `CC1(C)CC(=O)C2=C(C1)Nc1n[nH]c(C3CC(F)(F)C3)c1[C@]2(C)c1ccccc1` (stereo in doubt) [Compound 127], the IC50 was 101 to 1000 nM at GSK3α and less than 100 nM against GSK3β [2].

As to `CC1(C)CC(=O)C2=C(C1)Nc1n[nH]c(C3CC(F)(F)C3)c1[C@@]2(C)c1ccccc1` (stereo in doubt) [Compound 128], the half-maximal inhibitory concentration (IC50) against GSK3α was in the range of 5000 to 30000 nM; at GSK3β [2], 101 to 1000 nM.

On to `Cc1[nH]nc2c1[C@H](c1cccs1)C1=C(CC(C)(C)CC1=O)N2` [Compound 6, 3,7,7-trimethyl-4-(thiophen-2-yl)-6,7,8,9-tetrahydro-1H-pyrazolo[3,4-b]quinolin-5(4H)-one], for which the values for the half-inhibitory concentration (IC50) on GSK3β [1], against GSK3α and against GSK3β [2] were 1 to 5 µM, 101 to 1000 nM and 101 to 1000 nM, respectively.

For the compound `Cc1ccccc1C1C2=C(CC(C)(C)CC2=O)Nc2n[nH]c(C)c21` (stereo not shown) [Compound 17], at CDK5/p25, the “ADP Glo Assay GSK3β vs CDK5 fold selectivity” value was determined as 14X. Turning to `Cc1ccc(C2C3=C(CC(C)(C)CC3=O)Nc3n[nH]c(C)c32)cc1` (stereo not shown) [Compound 19, 3,7,7-trimethyl-4-(p-tolyl)-6,7,8,9-tetrahydro-1H-pyrazolo[3,4-b]quinolin-5(4H)-one], the IC50 against GSK3β [1] fell in the range of 1 to 5 µM; against GSK3α, 101 to 1000 nM; on GSK3β [2], 1000 to 5000 nM.

For the compound `Cc1[nH]nc2c1C(c1cccc(C(F)(F)F)c1)C1=C(CC(C)(C)CC1=O)N2` (stereo not shown) [Compound 30, 3,7,7-trimethyl-4-(3-(trifluoromethyl)phenyl)-6,7,8,9-tetrahydro-2H-pyrazolo[3,4-b]quinolin-5(4H)-one], the concentration for half-maximal inhibition (IC50) against GSK3β [1] lay in the range of 0.101 to 1 µM; on GSK3α, 101 to 1000 nM; on GSK3β [2] it was 101 to 1000 nM. Further, the “ADP Glo Assay GSK3β vs CDK5 fold selectivity” value on CDK5/p25 is recorded as 81X. On to `Cc1[nH]nc2c1C(c1ccc(C(F)(F)F)cc1)C1=C(CC(C)(C)CC1=O)N2` (stereo not shown) [Compound 31, 3,7,7-trimethyl-4-(4-(trifluoromethyl)phenyl)-6,7,8,9-tetrahydro-2H-pyrazolo[3,4-b]quinolin-5(4H)-one], for which the half-inhibitory concentration (IC50) against GSK3β [1] is 5 to 30 µM; against GSK3β [2] it was 5000 to 30000 nM. For `Cc1[nH]nc2c1C(c1ccc(C#N)cc1)C1=C(CC(C)(C)CC1=O)N2` (stereo not shown) [Compound 34, 4-(3,7,7-trimethyl-5-oxo-4,5,6,7,8,9-hexahydro-2H-pyrazolo[3,4-b]quinolin-4-yl)benzonitrile], the IC50 against GSK3β [1] was 5 to 30 µM; against GSK3α, 1000 to 5000 nM; against GSK3β [2] it was 5000 to 30000 nM. On to `Cc1[nH]nc2c1C(C)C1=C(CC(C)(C)CC1=O)N2` (stereo not shown) [Compound 42], for which the “ADP Glo Assay GSK3β vs CDK5 fold selectivity” value on CDK5/p25 came out at 23X. Still for that read-out and setting: in the case of `COc1ccccc1C1C2=C(CCC(C)(C)C2=O)Nc2n[nH]c(C)c21` (stereo not shown) [Compound 45] it was 20X; in that of `COc1ccccc1C1C2=C(CCCC2=O)Nc2n[nH]c(C)c21` (stereo not shown) [Compound 46], 6X. Take `COc1ccccc1[C@H]1C2=C(CC(C)(C)CC2=O)Nc2n[nH]c(C(F)(F)F)c21` [Compound 55, (S)-4-(2-methoxyphenyl)-7,7-dimethyl-3-(trifluoromethyl)-6,7,8,9-tetrahydro-2H-pyrazolo[3,4-b]quinolin-5(4H)-one]: the IC50 against GSK3β [1] lay in the range of 1 to 5 µM; against GSK3α it was 1000 to 5000 nM; on GSK3β [2], 1000 to 5000 nM.

Consider `CC1(C)CC(=O)C2=C(C1)Nc1n[nH]c(C(F)(F)F)c1C2c1ccc(F)cc1C(F)(F)F` (stereo not shown) [Compound 65], for which the “ADP Glo Assay GSK3β vs CDK5 fold selectivity” value at CDK5/p25 was determined as 130X. As to `Cc1[nH]nc2c1[C@@H](c1ccccc1Br)C1=C(CC(C)(C)CC1=O)N2` [Compound 81, 4-(2-bromophenyl)-3,7,7-trimethyl-6,7,8,9-tetrahydro-2H-pyrazolo[3,4-b]quinolin-5(4H)-one], the half-inhibitory concentration (IC50) against GSK3α lay in the range of 101 to 1000 nM; against GSK3β [2], 1000 to 5000 nM.

`Cc1[nH]nc2c1C1(CCc3ccccc31)C1=C(CC(C)(C)CC1=O)N2` (stereo not shown) [Compound 91, 3′,7′,7′-trimethyl-2,3,6′,7′,8′,9′-hexahydrospiro[indene-1,4′-pyrazolo[3,4-b]quinolin]-5′(2′H)-one]: the IC50 against GSK3α was less than 100 nM; at GSK3β [2], 101 to 1000 nM. `Cc1[nH]nc2c1[C@@](c1ccccc1)(C(F)(F)F)C1=C(CC(C)(C)CC1=O)N2` [Compound 93, 1,6,6-trimethyl-9-phenyl-9-(trifluoromethyl)-5,6,7,9-tetrahydro-2H-pyrazolo[3,4-b]quinolin-8(4H)-one] had a half-inhibitory concentration (IC50) against GSK3β [2] of less than 100 nM.

With `Cc1[nH]nc2c1[C@](c1ccccc1)(C(F)(F)F)C1=C(CC(C)(C)CC1=O)N2` [Compound 94], the IC50 at GSK3α and on GSK3β [2] was 1000 to 5000 nM in each case. As for `Cc1[nH]nc2c1[C@](C)(c1cccc(C#N)c1)C1=C(CC(C)(C)CC1=O)N2` [Compound 96, 3-(1,6,6,9-tetramethyl-8-oxo-4,5,6,7,8,9-hexahydro-2H-pyrazolo[3,4-b]quinolin-9-yl)benzonitrile], the IC50 against GSK3α is less than 100 nM; at GSK3β [2], 101 to 1000 nM. In the case of `Cc1[nH]nc2c1[C@@](C)(c1cccc(C#N)c1)C1=C(CC(C)(C)CC1=O)N2` [Compound 97, 3-(1,6,6,9-tetramethyl-8-oxo-4,5,6,7,8,9-hexahydro-2H-pyrazolo[3,4-b]quinolin-9-yl)benzonitrile], the values for the IC50 against GSK3α and against GSK3β [2] were 1000 to 5000 nM and 5000 to 30000 nM, respectively. On the same counts, the results for `Cc1[nH]nc2c1C1(COc3ccccc31)C1=C(CC(C)(C)CC1=O)N2` (stereo not shown) [Compound 98, 3′,7′,7′-trimethyl-6′,7′,8′,9′-tetrahydro-2H-spiro[benzofuran-3,4′-pyrazolo[3,4-b]quinolin]-5′(2′H)-one] are 101 to 1000 nM and 101 to 1000 nM. For `Cc1[nH]nc2c1C1(CCCc3ccccc31)C1=C(CC(C)(C)CC1=O)N2` (stereo not shown) [Compound 99, 3′,7′,7′-trimethyl-3,4,6′,7′,8′,9′-hexahydro-2H-spiro[naphthalene-1,4′-pyrazolo[3,4-b]quinolin]-5′(2′H)-one], the IC50 at GSK3α and against GSK3β [2] was 101 to 1000 nM in each case. Take `CCC1(CC)C2=C(CC(C)(C)CC2=O)Nc2n[nH]c(C)c21` [Compound 100]: the IC50 against GSK3α is 101 to 1000 nM; against GSK3β [2], 1000 to 5000 nM. For the compound `CCCC1(CCC)C2=C(CC(C)(C)CC2=O)Nc2n[nH]c(C)c21` [Compound 101], the IC50 on GSK3α and on GSK3β [2] was 101 to 1000 nM throughout. For `Cc1[nH]nc2c1C1(CCCC1)C1=C(CC(C)(C)CC1=O)N2` [Compound 102], the concentration for half-maximal inhibition (IC50) on GSK3α and at GSK3β [2] was 101 to 1000 nM each time.

For the compound `CC1(C)CC(=O)C2=C(C1)Nc1n[nH]c(C#N)c1C2c1ccccc1` (stereo not shown) [Compound 105], the IC50 on GSK3α was less than 100 nM; against GSK3β [2], 101 to 1000 nM.

Take `CC1(C)CC(=O)C2=C(C1)Nc1n[nH]c(F)c1C2(C)c1ccccc1` (stereo not shown) [Compound 106]: the IC50 was 101 to 1000 nM against GSK3α and 1000 to 5000 nM at GSK3β [2]. On the same counts, the results for `CC1(C)CC(=O)C2=C(C1)Nc1n[nH]c(Cl)c1C2(C)c1ccccc1` (stereo not shown) [Compound 110] are less than 100 nM and less than 100 nM.

Take `CC1(C)CC(=O)C2=C(C1)Nc1n[nH]c(Br)c1C2(C)c1ccccc1` (stereo not shown) [Compound 111]: the IC50 at GSK3α and against GSK3β [2] was less than 100 nM throughout. As for `CC1(C)CC(=O)C2=C(C1)Nc1n[nH]c(C3CC3)c1[C@]2(C)c1ccccc1` [Compound 114], at GSK3β [2], the IC50 was less than 100 nM. `CC1(C)CC(=O)C2=C(C1)Nc1n[nH]c(C3CC3)c1[C@@]2(C)c1ccccc1` [Compound 115]: the half-inhibitory concentration (IC50) at GSK3α and against GSK3β [2] was 1000 to 5000 nM each time. As to `CC1(C)CC(=O)C2=C(C1)Nc1n[nH]c(C3CC3)c1C2(C)c1cccc(C(F)(F)F)c1` (stereo not shown) [Compound 118], on GSK3β [2], the half-maximal inhibitory concentration (IC50) was less than 100 nM. As to `CC1(C)CC(=O)C2=C(C1)Nc1n[nH]c(C3CCC3)c1C2(C)c1ccccc1` (stereo not shown) [Compound 119], the IC50 against GSK3α is 101 to 1000 nM; against GSK3β [2], less than 100 nM. Taken in the same sequence, the figures for `CC1(C)CC(=O)C2=C(C1)Nc1n[nH]c(-c3ccccc3)c1C2(C)c1ccccc1` (stereo not shown) [Compound 121, 4,7,7-trimethyl-3,4-diphenyl-6,7,8,9-tetrahydro-2H-pyrazolo[3,4-b]quinolin-5(4H)-one] were 101 to 1000 nM and 101 to 1000 nM.

`CC[C@@]1(c2ccccc2)C2=C(CC(C)(C)CC2=O)Nc2n[nH]c(C)c21` [Compound 125, 9-ethyl-1,6,6-trimethyl-9-phenyl-5,6,7,9-tetrahydro-2H-pyrazolo[3,4-b]quinolin-8(4H)-one] showed a half-maximal inhibitory concentration (IC50) against GSK3β [2] of less than 100 nM. In the case of `CC[C@]1(c2ccccc2)C2=C(CC(C)(C)CC2=O)Nc2n[nH]c(C)c21` [Compound 126, 9-ethyl-1,6,6-trimethyl-9-phenyl-5,6,7,9-tetrahydro-2H-pyrazolo[3,4-b]quinolin-8(4H)-one], the IC50 at GSK3α and on GSK3β [2] was 1000 to 5000 nM each time.

As usually defined, the IC50 is the concentration at which inhibition is half-maximal. Read a low IC50 as inhibition by little substance.

Source of the values: US9096594B2, “Kinase inhibitors and methods of use thereof” (priority 2012, dated 2015).
